# Results taken from patent US20250114345A1, “COMPOUNDS AND COMPOSITIONS AS CBP/P300 DEGRADERS AND USES THEREOF” (Oncopia Therapeutics, Inc. d/b/a/ SK Life Science Labs, priority 2023, published 2025).
# Biological target: T1, p300 (Homo sapiens, UniProt Q09472)
# T1 construct: host or cells: A549 P300 HiBit cells
# Assay: P300 degradation, HiBit technology in A549 P300 HiBit cells (2 h)
# Assay type: cell-based
# Details: 2 hrs post treatment; for Dmax: A549, A549 P300 HiBit cells; for DC50: A549 P300 HiBit cells
# How it was run: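 Degradation potency and Dmax came from HiBiT luminescence in tagged A549 cells treated with serially diluted compound (DMSO stocks at 10 mM) after overnight equilibration in F-12K with 10% heat-inactivated FBS.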
# T1 sequence (Q09472 whole entry): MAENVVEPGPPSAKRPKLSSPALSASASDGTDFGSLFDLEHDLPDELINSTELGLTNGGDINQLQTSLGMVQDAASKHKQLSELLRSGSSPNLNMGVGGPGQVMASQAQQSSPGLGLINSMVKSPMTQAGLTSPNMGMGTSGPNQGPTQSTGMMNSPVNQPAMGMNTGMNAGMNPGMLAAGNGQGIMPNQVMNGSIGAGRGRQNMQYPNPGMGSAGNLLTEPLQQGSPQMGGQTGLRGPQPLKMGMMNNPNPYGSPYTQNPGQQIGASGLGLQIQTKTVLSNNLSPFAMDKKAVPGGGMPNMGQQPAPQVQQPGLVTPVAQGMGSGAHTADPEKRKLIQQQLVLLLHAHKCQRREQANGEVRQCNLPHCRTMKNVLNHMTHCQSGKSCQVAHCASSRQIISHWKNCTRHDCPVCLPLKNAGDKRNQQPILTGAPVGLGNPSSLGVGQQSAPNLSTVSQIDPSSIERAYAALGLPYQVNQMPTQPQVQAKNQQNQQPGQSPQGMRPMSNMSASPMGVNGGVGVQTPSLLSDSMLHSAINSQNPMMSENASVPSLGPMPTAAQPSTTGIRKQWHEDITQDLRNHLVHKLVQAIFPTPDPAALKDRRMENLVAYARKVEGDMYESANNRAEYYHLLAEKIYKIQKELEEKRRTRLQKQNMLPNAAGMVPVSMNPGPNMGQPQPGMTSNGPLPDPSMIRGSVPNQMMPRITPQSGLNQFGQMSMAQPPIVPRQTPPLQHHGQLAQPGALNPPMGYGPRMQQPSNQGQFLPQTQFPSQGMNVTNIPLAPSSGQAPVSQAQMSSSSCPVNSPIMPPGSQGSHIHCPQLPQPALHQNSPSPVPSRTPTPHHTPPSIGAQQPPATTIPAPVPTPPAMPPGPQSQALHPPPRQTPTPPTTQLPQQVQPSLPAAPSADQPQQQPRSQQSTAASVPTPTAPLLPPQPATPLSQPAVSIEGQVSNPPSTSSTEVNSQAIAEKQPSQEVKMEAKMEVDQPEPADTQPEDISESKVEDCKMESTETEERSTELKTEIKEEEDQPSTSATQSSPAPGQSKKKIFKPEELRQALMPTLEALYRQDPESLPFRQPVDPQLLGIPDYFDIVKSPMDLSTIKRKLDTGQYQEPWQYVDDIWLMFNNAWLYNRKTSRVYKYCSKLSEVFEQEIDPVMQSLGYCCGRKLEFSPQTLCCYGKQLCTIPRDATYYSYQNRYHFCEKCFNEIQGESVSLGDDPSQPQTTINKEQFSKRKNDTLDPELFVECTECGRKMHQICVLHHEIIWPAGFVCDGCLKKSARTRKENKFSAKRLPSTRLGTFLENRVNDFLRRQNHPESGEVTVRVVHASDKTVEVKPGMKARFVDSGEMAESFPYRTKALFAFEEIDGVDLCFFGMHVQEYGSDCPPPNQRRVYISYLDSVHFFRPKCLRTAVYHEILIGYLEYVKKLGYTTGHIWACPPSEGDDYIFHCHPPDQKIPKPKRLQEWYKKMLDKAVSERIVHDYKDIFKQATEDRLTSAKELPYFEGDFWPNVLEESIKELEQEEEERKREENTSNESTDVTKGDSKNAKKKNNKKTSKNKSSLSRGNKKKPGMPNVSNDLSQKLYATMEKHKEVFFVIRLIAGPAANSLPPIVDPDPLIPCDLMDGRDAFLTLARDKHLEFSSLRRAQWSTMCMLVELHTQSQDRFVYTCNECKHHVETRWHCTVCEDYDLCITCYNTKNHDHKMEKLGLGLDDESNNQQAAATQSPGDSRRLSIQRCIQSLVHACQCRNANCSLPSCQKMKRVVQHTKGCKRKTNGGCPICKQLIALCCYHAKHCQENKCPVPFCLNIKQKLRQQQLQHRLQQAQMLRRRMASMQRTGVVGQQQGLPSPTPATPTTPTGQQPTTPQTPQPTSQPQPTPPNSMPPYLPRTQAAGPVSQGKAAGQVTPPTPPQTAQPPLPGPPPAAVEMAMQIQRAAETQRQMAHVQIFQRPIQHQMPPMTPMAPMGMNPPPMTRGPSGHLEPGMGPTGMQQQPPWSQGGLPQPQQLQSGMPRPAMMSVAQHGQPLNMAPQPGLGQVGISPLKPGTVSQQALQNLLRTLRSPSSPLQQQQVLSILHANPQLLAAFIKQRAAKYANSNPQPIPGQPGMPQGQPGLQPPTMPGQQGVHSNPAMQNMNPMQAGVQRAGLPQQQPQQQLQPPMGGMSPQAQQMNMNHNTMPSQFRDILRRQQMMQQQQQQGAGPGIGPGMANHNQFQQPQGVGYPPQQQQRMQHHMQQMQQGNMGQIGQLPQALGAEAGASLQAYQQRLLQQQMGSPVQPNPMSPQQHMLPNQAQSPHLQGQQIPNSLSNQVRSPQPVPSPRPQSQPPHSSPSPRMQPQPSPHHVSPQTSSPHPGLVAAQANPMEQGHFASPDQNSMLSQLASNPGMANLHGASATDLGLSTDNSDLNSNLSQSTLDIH
Dmax [%],DC50 [nM],Structure (SMILES)
> 80,1 to 9.9,"Cc1cc(-c2cnc(N(C)c3cc(C4CCOCC4)c4c(c3)n(C)c(=O)n4C)cn2)cnc1C(=O)NCC#Cc1ccc2occ(C3CCC(=O)NC3=O)c2c1 (stereo not shown) [Example A128, 5-(5-((1,3-dimethyl-2-oxo-7-(tetrahydro-2H-pyran-4-yl)-2,3-dihydro-1H-benzo[d]imidazol-5-yl)(methyl)amino)pyrazin-2-yl)-N-(3-(3-(2,6-dioxopiperidin-3-yl)benzofuran-5-yl)prop-2-yn-1-yl)-3-methylpicolinamide]"
> 80,1 to 9.9,"Cn1cc(-c2ccc3c(c2)n(C)c(=O)n3C)c2cnc(-c3ccc(C(=O)NCC#Cc4ccc5occ(C6CCC(=O)NC6=O)c5c4)nc3)cc2c1=O (stereo not shown) [Example A129, 5-(8-(1,3-dimethyl-2-oxo-2,3-dihydro-1H-benzo[d]imidazol-5-yl)-6-methyl-5-oxo-5,6-dihydro-2,6-naphthyridin-3-yl)-N-(3-(3-(2,6-dioxo-piperidin-3-yl)benzo-furan-5-yl)prop-2-yn-1-yl)picolinamide]"
20 to 39,10 to 99,"CN1C(=O)C(C)(C)c2cc(-c3cccc4cc(-c5ccc(C(=O)NCC#Cc6ccc7occ(C8CCC(=O)NC8=O)c7c6)nc5)ncc34)ccc21 (stereo not shown) [Example A130, N-(3-(3-(2,6-dioxo-piperidin-3-yl)benzo-furan-5-yl)prop-2-yn-1-yl)-5-(8-(1,3,3-trimethyl-2-oxoindolin-5-yl)isoquinolin-3-yl)picolinamide]"
> 80,1 to 9.9,"CC(C)c1cc(N2CCOc3cc(-c4ccc(C(=O)NCC#Cc5ccc6occ(C7CCC(=O)NC7=O)c6c5)nc4)c(C#N)cc32)cc2c1n(C)c(=O)n2C (stereo not shown) [Example A134, 5-(6-cyano-4-(7-iso-propyl-1,3-dimethyl-2-oxo-2,3-dihydro-1H-benzo[d]imidazol-5-yl)-3,4-dihydro-2H-benzo[b][1,4]oxazin-7-yl)-N-(3-(3-(2,6-dioxopiperidin-3-yl)benzofuran-5-yl)prop-2-yn-1-yl)picolinamide]"
> 80,1 to 9.9,"Cn1c(=O)n(C)c2c(C3CCOCC3)nc(-c3cccc4cc(-c5ccc(C(=O)NCC#Cc6ccc7occ(C8CCC(=O)NC8=O)c7c6)nc5)ncc34)cc21 (stereo not shown) [Example A135, 5-(8-(1,3-dimethyl-2-oxo-4-(tetrahydro-2H-pyran-4-yl)-2,3-dihydro-1H-imidazo[4,5-c]pyridin-6-yl)isoquinolin-3-yl)-N-(3-(3-(2,6-dioxopiperidin-3-yl)benzofuran-5-yl)prop-2-yn-1-yl)picolinamide]"
> 80,1 to 9.9,"CCN(c1cnc(-c2cnc(C(=O)NCC#Cc3ccc4occ(C5CCC(=O)NC5=O)c4c3)c(C)c2)c(F)c1)c1cc(C(C)C)c2c(c1)n(C)c(=O)n2C (stereo not shown) [Example A137, N-(3-(3-(2,6-dioxo-piperidin-3-yl)benzofuran-5-yl)prop-2-yn-1-yl)-5-(ethyl(7-isopropyl-1,3-dimethyl-2-oxo-2,3-dihydro-1H-benzo[d]imidazol-5-yl)amino)-3-fluoro-5′-methyl-[2,3′-bipyridine]-6′-carboxamide]"
40 to 59,1 to 9.9,"Cn1c(=O)n(C)c2c(C3CCS(=O)(=O)CC3)nc(N3CCCc4cc(-c5ccc(C(=O)NCC#Cc6ccc7occ(C8CCC(=O)NC8=O)c7c6)nc5)c(C(F)F)cc43)cc21 (stereo not shown) [Example A140, 5-(7-(difluoromethyl)-1-(4-(1,1-dioxido-tetrahydro-2H-thio-pyran-4-yl)-1,3-dimethyl-2-oxo-2,3-dihydro-1H-imidazo[4,5-c]pyridin-6-yl)-1,2,3,4-tetrahydroquinolin-6-yl)-N-(3-(3-(2,6-dioxopiperidin-3-yl)benzofuran-5-yl)prop-2-yn-1-yl)picolinamide]"
> 80,1 to 9.9,"Cc1cc(-c2ccc(N(C)c3cc(C(C)C)c4c(c3)n(C)c(=O)n4C)cn2)cnc1C(=O)NCC#Cc1ccc2occ(C3CCC(=O)NC3=O)c2c1 (stereo not shown) [Example A141, N-(3-(3-(2,6-dioxo-piperidin-3-yl)benzofuran-5-yl)prop-2-yn-1-yl)-5-((7-isopropyl-1,3-dimethyl-2-oxo-2,3-dihydro-1H-benzo [d]imidazol-5-yl)(methyl)amino)-5′-methyl-[2,3′-bipyridine]-6′-carboxamide]"
> 80,10 to 99,"CC(C)c1cc(N2CCC(F)(F)c3cc(-c4ccc(C(=O)NCC#Cc5ccc6occ(C7CCC(=O)NC7=O)c6c5)nc4)ccc32)cc2c1n(C)c(=O)n2C (stereo not shown) [Example A142, 5-(4,4-difluoro-1-(7-isopropyl-1,3-dimethyl-2-oxo-2,3-dihydro-1H-benzo[d]imidazol-5-yl)-1,2,3,4-tetrahydroquinolin-6-yl)-N-(3-(3-(2,6-dioxopiperidin-3-yl)benzofuran-5-yl)prop-2-yn-1-yl)picolinamide]"
20 to 39,1 to 9.9,"CCn1c(=O)n(C)c2ccc(N3CCOc4nc(-c5ccc(C(=O)NCC#Cc6ccc7occ(C8CCC(=O)NC8=O)c7c6)nc5)ncc43)cc21 (stereo not shown) [Example A143, N-(3-(3-(2,6-dioxo-piperidin-3-yl)benzofuran-5-yl)prop-2-yn-1-yl)-5-(5-(3-ethyl-1-methyl-2-oxo-2,3-dihydro-1H-benzo[d]imidazol-5-yl)-6,7-dihydro-5H-pyrimido[4,5-b] [1,4]oxazin-2-yl)picolinamide]"
< 20,> 1000,"Cn1c(=O)oc2cc(N3CCOc4nc(-c5ccc(C(=O)NCC#Cc6ccc7occ(C8CCC(=O)NC8=O)c7c6)nc5)ncc43)ccc21 (stereo not shown) [Example A144, N-(3-(3-(2,6-dioxo-piperidin-3-yl)benzofuran-5-yl)prop-2-yn-1-yl)-5-(5-(3-methyl-2-oxo-2,3-dihydrobenzo[d]oxazol-6-yl)-6,7-dihydro-5H-pyrimido [4,5-b][1,4]oxazin-2-yl)picolinamide]"
> 80,1 to 9.9,"Cc1cc(N2CCCc3nc(-c4ccc(C(=O)NCC#Cc5ccc6occ(C7CCC(=O)NC7=O)c6c5)nc4)ncc32)cc2c1n(C)c(=O)n2C (stereo not shown) [Example A146, N-(3-(3-(2,6-dioxo-piperidin-3-yl)benzofuran-5-yl)prop-2-yn-1-yl)-5-(5-(1,3,7-trimethyl-2-oxo-2,3-dihydro-1H-benzo[d]imidazol-5-yl)-5,6,7,8-tetrahydropyrido [3,2-d]pyrimidin-2-yl)picolinamide]"
< 20,> 1000,"Cc1cc(-c2ncc(N(C)c3cc4c(c(N5CCOCC5)n3)n(C)c(=O)n4C)cn2)cnc1C(=O)NCC#Cc1ccc2occ(C3CCC(=O)NC3=O)c2c1 (stereo not shown) [Example A147, 5-(5-((1,3-dimethyl-4-morpholino-2-oxo-2,3-dihydro-1H-imidazo[4,5-c]pyridin-6-yl)(methyl)amino)pyrimidin-2-yl)-N-(3-(3-(2,6-dioxopiperidin-3-yl)benzofuran-5-yl)prop-2-yn-1-yl)-3-methylpicolinamide]"
> 80,1 to 9.9,"COc1cc(-c2cc3cccc(-c4ccc5c(c4)n(C)c(=O)n5C)c3cn2)cnc1C(=O)NCC#Cc1ccc2occ(C3CCC(=O)NC3=O)c2c1 (stereo not shown) [Example A148, 5-(8-(1,3-dimethyl-2-oxo-2,3-dihydro-1H-benzo[d]imidazol-5-yl)isoquinolin-3-yl)-N-(3-(3-(2,6-dioxo-piperidin-3-yl)benzofuran-5-yl)prop-2-yn-1-yl)-3-methoxypicolinamide]"
